Test results taken from patent US20090203693A1, “THERAPEUTIC AGENT FOR LIVER FIBROSIS” (Eisai R & D Management Co., Ltd., priority 2006, published 2009).

How the values were obtained:
[1] = molecular target: T1, His6-DDR2 (cytoplasmic domain of human DDR2) (Homo sapiens, UniProt Q16832); assay: Determination of DDR2 kinase inhibitory activity (His6-DDR2 tyrosine autophosphorylation, HTRF); format: biochemical; details: cell free, ATP, room temperature 10 minutes, HTRF detection; read-out: IC50 (concentration of the test substance required for inhibiting His6-DDR2 kinase activity by 50%)
T1 construct: cytoplasmic domain of DDR2 having 6 histidines fused to the N-terminus thereof; made in house; host or cells: Sf9 insect cells (baculovirus, pFastBac-HT)
T1 sequence (Q16832 422-855 limits assumed): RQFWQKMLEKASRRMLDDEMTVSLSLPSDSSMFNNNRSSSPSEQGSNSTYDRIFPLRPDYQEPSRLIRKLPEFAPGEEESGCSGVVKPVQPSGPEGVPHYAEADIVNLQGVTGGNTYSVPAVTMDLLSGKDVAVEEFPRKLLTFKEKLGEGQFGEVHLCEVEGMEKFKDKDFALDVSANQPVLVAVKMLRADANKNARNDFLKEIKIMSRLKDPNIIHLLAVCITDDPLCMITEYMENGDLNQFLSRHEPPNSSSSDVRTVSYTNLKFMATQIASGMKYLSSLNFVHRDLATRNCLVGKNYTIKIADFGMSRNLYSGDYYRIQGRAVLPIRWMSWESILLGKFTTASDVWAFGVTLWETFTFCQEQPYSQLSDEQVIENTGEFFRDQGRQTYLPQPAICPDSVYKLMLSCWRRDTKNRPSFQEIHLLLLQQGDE
Source text: A DNA fragment of cytoplasmic domain of human DDR2 (SEQ ID NO: 1) was isolated by PCR method (Expand High Fidelity (purchased from Roche)) according to a conventional technique using human brain cDNA library (purchased from Clontech) as a template and SEQ ID NO:3: 5′-[…]-3′ and SEQ ID NO:4: 5′-[…]-3′ (purchased from JBioS) as primers. This DNA fragment was inserted into a baculovirus transplacement vector (pFastBac™-HT (purchased from Invitrogen)) to obtain a recombinant construct. Insect cells (Spodoptera frugiperda 9 (Sf9 cells)) were transfected with this recombinant construct, thereby preparing a DDR2 recombinant baculovirus solution. For preparation of a recombinant baculovirus, we referred to a standard textbook (Bac-to-Bac Baculovirus Expression System (Invitrogen)).
The above-described DDR2 recombinant Baculovirus solution (0.07 mL) was added to Sf9 cells (7×10^7 cells) suspended in 2.5% FBS-containing SF-900II medium (purchased from Invitrogen) and shake-cultured at 27° C. for 72 hours. Then, this DDR2 recombinant Baculovirus-infected cells were subjected to centrifugation at 1,600 rpm at 4° C. for 6 minutes and the supernatant was removed. The precipitated infected cells were suspended in 10 mL of ice-cold PBS and centrifuged at 1,600 rpm at 4° C. for 6 minutes to remove the supernatant. The precipitated infected cells were suspended in 5 mL of ice-cold lysis buffer (50 mM Tris-HCl (pH 8.5), 5 mM 2-mercaptoethanol, 100 mM KCl, 1 mM PMSA, 1% (v/v) NP40), and centrifuged at 10,000 rpm at 4° C. for 10 minutes to obtain the supernatant.
This supernatant was added to a Ni-NTA agarose column (1.5 mL (purchased from Qiagen)) equilibrated with 5 mL of buffer A (20 mM Tris-HCl (pH 8.5), 5 mM 2-mercaptoethanol, 500 mM KCl, 20 mM imidazole, 10% (v/v) glycerol). This column was sequentially washed with 10 mL of buffer A, 2 mL of buffer B (20 mM Tris-HCl (pH8.5), 5 mM 2-mercaptoethanol, 1 M KCl, 10% (v/v) glycerol) and 2 mL of buffer A. Subsequently, 4 mL of buffer C (20 mM Tris-HCl (pH 8.5), 5 mM 2-mercaptoethanol, 100 mM KCl, 100 mM imidazole, 10% (v/v) glycerol) was added to obtain an eluate. This eluate was placed in a dialysis membrane (purchased from Spectrum Medical Industries) and dialyzed against 1 L of dialysis buffer (20 mM Tris-HCl, 10% (v/v) glycerol, 1 mM dithiothreitol, 0.1 mM Na3VO4, 0.1 mM EGTA) at 4° C. overnight. After dialysis, a portion of the eluate was subjected to SDS-PAGE and an amount of the recombinant protein detected at a molecular weight of about 40 kDa (His6-DDR2 (cytoplasmic domain of DDR2 having 6 histidines fused to the N-terminus thereof)) by Coomassie brilliant blue staining was quantitated using BSA as a standard substance.
To each well of a 96-well black half plate (purchased from Corning, Product No: 3694), 20 ng of His6-DDR2, 35 μL of 25 mM Hepes solution (pH 7.4) containing 14 mM MgCl2 and a test substance dissolved in dimethylsulfoxide (at 100-fold dilution with 1% BSA; 5 μL) were added to a total amount of 40 μL. To this, […] of 50 μM ATP (purchased with Sigma) diluted with 25 mM Hepes solution was added and incubated at room temperature for 10 minutes. Thereafter, 10 μL of 50 mM EDTA (pH 8.0) (purchased from Wako Pure Chemical Industries) was added to terminate the kinase reaction.
Tyrosine-phosphorylated DDR2 was detected using homogeneous time resolved fluorescence (HTRF) technique (Analytical Biochemistry, 269, 94-104, 1999). Specifically, to each well of the reaction solutions mentioned above, 20 μL of 25 mM Hepes solution containing 1 M KF, 4.75 ng of europium cryptate-labeled anti-phosphorylated tyrosine antibody (Eu(K)-PT66) and 100 ng of XL665-labeled anti-His antibody (XL665-Anti-His) was added. This reaction solution was incubated at room temperature overnight. Thereafter, fluorescence intensities of each well at 665 nm and 620 nm were measured under irradiation at an excitation wavelength of 337 nm using Discovery HTRF microplate analyzer (from Packard). […]

[2] = test system: thioacetamide-induced hepatic fibrillization in Balb/cAnN female mice; assay: Mouse models of thioacetamide-induced cirrhosis (Azan staining of liver sections); format: in vivo; details: orally once daily at 1 or 3 mg/kg, thioacetamide i.p. twice a week for five weeks
Description: Thioacetamide (purchased from Tokyo Chemical Industry) was intraperitoneally administered at 150 mg/kg for the first week and 200 mg/kg for the next second to fifth weeks to Balb/cAnN female mice (purchased from Charles River Laboratories) twice a week. The test substance (Compound 3) was suspended in 0.5% methylcellulose aqueous solution and orally administered once daily at 1 or 3 mg/kg. Three days after the final thioacetamide administration, livers were removed from the mice and subjected to 10% neutral buffered formalin fixation followed by Azan staining (staining technique is described in “Medical Technology, supp., new technique for staining” (Ishiyaku Publisher, 1999)). The degree of fibrillization was examined by observation of the stained tissue sections. Experiments were conducted for a group without the administration of thioacetamide (6 examples), a group administered with thioacetamide but a test substance (3 examples), a group administered with Compound 3 at 1 mg/kg (6 examples) and a group administered with Compound 3 at 3 mg/kg (3 examples).

COc1cc2nccc(Oc3ccc(NC(=O)Nc4nccs4)cc3)c2cc1OC [Compound 3, N-(2-thiazole)-N′-(4-((6,7-dimethoxy-4-quinolinyl)oxy)phenyl)urea]
IC50 [1]: 0.18 nM
degree of hepatic fibrillization (observation of stained tissue sections) [2]: suppressed hepatic fibrillization in a dose-dependent manner
